“And” between values parts separate entries of the source, which are not always exact repeats. Equal entries are not always repeated.
Tests used:
Assay type in all cases: cell-based
[1] = target: kinases in BCWM.1 cells (Homo sapiens, UniProt Q99755); conditions: PIP5K1A; ATP; 1 μM, 90 min; GF
Protocol: (§1) The cells were harvested and lysed. […] Bound kinases were identified and quantitated by ACTIVX as described in Patricelli et al., Biochemistry, 2007, 46(2): 350-358. The compounds were tested in duplicates against duplicate or quadruplicate control samples.

[2] = target: PLK1 (Homo sapiens (Human), UniProt P53350); assay: KINATIV assay; conditions: 1 μM, 90 minutes, BCWM.1 cells
Sequence of PLK1 (P53350 whole entry): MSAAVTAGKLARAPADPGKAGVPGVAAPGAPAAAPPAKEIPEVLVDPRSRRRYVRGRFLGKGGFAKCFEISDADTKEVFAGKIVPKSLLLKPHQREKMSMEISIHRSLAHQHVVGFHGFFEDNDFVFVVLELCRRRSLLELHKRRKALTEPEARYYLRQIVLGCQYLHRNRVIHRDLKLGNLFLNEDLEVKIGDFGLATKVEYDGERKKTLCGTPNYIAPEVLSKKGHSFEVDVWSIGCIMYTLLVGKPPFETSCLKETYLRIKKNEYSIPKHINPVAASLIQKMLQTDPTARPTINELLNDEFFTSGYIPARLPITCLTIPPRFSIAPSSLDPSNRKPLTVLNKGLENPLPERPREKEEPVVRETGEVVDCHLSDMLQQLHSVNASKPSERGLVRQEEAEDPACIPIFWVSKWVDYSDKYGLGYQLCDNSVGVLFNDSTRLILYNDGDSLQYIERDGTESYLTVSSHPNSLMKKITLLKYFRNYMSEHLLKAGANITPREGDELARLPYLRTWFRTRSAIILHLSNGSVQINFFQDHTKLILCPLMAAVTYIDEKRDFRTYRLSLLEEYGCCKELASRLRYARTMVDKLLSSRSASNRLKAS
Summary of the method: (§2)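 Harvest, lyse, probe: lysates take up an ATP-biotin probe directly, and ACTIVX identifies and quantifies the kinases bound.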

[3] = target: LOK (Homo sapiens (Human), UniProt O94804); assay: KINATIV assay; conditions: 1 μM, 90 minutes, BCWM.1 cells
Sequence of LOK (O94804 whole entry): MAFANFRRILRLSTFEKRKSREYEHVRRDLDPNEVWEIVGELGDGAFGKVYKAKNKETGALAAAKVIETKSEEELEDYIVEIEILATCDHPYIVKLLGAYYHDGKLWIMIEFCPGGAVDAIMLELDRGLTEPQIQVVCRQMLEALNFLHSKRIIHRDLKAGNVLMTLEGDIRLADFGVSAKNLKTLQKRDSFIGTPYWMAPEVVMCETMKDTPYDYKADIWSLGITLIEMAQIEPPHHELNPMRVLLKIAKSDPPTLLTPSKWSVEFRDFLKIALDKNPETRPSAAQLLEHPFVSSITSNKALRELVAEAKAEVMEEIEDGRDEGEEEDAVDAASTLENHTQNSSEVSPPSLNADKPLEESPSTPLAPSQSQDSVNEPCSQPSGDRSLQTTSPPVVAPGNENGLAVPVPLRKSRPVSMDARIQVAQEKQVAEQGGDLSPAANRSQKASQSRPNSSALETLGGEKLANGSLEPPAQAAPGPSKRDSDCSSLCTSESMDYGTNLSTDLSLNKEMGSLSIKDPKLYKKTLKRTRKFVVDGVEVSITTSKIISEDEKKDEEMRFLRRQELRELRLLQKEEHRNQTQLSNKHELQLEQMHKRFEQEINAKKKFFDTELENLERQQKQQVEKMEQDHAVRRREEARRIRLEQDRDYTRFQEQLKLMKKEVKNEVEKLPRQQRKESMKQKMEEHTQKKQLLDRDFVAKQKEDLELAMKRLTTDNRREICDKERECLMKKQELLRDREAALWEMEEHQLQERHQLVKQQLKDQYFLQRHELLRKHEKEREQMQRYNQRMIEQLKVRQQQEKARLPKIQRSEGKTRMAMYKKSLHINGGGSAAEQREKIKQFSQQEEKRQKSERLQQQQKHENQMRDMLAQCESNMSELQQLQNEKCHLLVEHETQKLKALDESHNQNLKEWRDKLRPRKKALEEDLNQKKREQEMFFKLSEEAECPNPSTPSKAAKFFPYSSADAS
Summary of the method: as §2

[4] = target: kinases in BCWM.1 cells (Homo sapiens, UniProt Q13163); conditions: MAP2K5; Lys2; 1 μM; GF
Protocol: as §1

[5] = target: kinases in BCWM.1 cells (Homo sapiens, UniProt Q9Y2U5); conditions: MAP3K2; Lys1; 1 μM; GF
Protocol: as §1

[6] = target: kinases in BCWM.1 cells (Homo sapiens, UniProt P07948); conditions: LYN; Lys1; 1 μM; GF
Sequence of kinases in BCWM.1 cells (Homo sapiens, UniProt P07948) (P07948 2-512 limits assumed): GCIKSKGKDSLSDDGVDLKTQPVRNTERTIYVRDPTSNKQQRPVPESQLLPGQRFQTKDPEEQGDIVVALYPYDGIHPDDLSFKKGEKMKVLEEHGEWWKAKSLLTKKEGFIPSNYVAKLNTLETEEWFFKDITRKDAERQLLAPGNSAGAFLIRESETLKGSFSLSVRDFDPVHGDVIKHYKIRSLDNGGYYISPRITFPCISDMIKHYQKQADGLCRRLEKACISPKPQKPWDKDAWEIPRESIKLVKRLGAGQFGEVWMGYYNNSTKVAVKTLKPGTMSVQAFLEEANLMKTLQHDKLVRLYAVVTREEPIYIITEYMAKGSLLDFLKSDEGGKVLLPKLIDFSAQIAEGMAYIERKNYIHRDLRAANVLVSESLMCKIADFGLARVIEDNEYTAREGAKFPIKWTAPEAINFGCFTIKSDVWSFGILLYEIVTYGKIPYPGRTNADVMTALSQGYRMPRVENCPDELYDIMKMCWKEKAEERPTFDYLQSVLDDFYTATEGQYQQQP
Protocol: as §1

[7] = target: kinases in BCWM.1 cells (Homo sapiens, UniProt O14733); conditions: MAP2K7; Lys2; 1 μM; GF
Sequence of kinases in BCWM.1 cells (Homo sapiens, UniProt O14733) (O14733 2-419 limits assumed): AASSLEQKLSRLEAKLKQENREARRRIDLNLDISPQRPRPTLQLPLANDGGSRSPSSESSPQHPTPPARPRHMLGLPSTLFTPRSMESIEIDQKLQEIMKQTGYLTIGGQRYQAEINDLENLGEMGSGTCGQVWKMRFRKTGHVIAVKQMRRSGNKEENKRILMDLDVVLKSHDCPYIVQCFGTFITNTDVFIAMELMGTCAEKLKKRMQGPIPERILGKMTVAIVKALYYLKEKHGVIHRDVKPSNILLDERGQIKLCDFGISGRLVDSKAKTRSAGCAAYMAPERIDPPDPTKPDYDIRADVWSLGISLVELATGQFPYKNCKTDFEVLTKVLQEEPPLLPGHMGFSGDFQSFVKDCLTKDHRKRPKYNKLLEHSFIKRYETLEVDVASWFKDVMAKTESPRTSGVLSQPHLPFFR
Protocol: as §1

[8] = target: kinases in BCWM.1 cells (Homo sapiens, UniProt Q00534); conditions: CDK6; Lys2; 1 μM; GF
Protocol: as §1

[9] = target: kinases in BCWM.1 cells (Homo sapiens, UniProt Q13233); conditions: MAP3K1; Lys2; 1 μM; GF
Sequence of kinases in BCWM.1 cells (Homo sapiens, UniProt Q13233) (Q13233 2-1512 limits assumed): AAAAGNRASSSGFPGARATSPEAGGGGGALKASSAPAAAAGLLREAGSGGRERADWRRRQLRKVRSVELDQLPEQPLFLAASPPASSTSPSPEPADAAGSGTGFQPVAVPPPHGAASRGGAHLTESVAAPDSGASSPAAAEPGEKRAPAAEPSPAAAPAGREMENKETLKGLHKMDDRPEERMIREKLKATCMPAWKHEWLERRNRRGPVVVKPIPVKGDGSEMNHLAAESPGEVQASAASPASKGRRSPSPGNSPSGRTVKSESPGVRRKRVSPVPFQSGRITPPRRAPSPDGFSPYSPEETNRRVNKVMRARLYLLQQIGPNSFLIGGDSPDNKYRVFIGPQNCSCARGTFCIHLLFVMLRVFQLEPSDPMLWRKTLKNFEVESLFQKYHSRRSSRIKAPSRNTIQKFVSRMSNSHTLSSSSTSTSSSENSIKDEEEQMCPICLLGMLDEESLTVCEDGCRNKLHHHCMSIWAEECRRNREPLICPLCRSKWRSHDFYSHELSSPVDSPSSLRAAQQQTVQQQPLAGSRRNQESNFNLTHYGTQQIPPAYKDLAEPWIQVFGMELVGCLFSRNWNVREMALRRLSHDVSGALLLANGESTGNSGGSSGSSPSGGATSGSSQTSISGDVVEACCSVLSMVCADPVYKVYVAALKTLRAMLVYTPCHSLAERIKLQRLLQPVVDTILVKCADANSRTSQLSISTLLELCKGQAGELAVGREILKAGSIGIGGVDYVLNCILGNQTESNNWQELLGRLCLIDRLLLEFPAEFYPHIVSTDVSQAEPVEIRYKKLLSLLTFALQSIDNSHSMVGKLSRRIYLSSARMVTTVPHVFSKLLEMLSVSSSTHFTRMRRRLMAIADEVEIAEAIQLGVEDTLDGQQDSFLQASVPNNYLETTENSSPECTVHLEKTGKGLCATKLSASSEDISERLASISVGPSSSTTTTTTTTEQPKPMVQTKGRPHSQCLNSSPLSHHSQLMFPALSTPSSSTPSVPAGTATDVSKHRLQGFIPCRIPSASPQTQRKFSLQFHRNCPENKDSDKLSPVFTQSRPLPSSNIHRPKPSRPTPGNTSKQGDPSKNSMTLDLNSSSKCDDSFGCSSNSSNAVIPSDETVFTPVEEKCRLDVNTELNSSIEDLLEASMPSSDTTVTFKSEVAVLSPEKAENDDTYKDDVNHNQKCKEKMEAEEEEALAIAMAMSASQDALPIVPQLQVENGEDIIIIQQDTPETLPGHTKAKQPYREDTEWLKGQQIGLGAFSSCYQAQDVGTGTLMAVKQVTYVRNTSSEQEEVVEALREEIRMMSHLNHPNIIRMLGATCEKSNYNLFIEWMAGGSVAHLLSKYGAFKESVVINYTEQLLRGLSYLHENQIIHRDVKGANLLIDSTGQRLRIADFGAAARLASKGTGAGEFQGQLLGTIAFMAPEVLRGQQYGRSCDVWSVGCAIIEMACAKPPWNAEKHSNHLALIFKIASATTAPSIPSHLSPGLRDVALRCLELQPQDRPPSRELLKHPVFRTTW
Protocol: as §1

[10] = target: kinases in BCWM.1 cells (Homo sapiens, UniProt P50750); conditions: CDK9; Lys2; 1 μM; GF
Protocol: as §1

[11] = target: kinases in BCWM.1 cells (Homo sapiens, UniProt P06493); conditions: CDC2; Protein Kinase Domain; 1 μM; GF
Protocol: as §1

[12] = target: kinases in BCWM.1 cells (Homo sapiens, UniProt Q16566); conditions: CaMK4; Lys2; 1 μM; GF
Protocol: as §1

[13] = target: kinases in BCWM.1 cells (Homo sapiens, UniProt Q14164); conditions: IKKe; Lys1; 1 μM; GF
Protocol: as §1

[14] = target: kinases in BCWM.1 cells (Homo sapiens, UniProt Q9Y616); conditions: IRAK3; Lys1; 1 μM; GF
Protocol: as §1

[15] = target: kinases in BCWM.1 cells (Homo sapiens, UniProt P51451); conditions: BLK; Activation Loop; 1 μM; GF
Sequence of kinases in BCWM.1 cells (Homo sapiens, UniProt P51451) (P51451 2-505 limits assumed): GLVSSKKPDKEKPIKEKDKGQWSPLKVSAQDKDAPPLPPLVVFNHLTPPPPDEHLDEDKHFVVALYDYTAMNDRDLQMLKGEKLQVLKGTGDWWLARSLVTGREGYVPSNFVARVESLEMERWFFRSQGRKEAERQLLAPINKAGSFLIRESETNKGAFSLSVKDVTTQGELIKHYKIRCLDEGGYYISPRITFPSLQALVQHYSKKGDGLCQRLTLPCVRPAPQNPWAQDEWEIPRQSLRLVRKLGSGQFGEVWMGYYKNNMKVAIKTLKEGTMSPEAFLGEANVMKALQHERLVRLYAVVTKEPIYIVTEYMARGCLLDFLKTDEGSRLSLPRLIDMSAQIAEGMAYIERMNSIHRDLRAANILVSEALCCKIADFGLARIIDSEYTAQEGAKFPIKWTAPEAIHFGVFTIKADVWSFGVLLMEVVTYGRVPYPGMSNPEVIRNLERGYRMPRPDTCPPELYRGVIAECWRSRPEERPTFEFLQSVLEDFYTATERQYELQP
Protocol: as §1

[16] = target: kinases in BCWM.1 cells (Homo sapiens, UniProt Q8NB16); conditions: MLKL; Lys1; 1 μM; GF
Protocol: as §1

[17] = target: kinases in BCWM.1 cells (Homo sapiens, UniProt Q5TCX8); conditions: MLK4; Lys2; 1 μM; GF
Protocol: as §1

[18] = target: kinases in BCWM.1 cells (Homo sapiens, UniProt Q9Y4K4); conditions: KHS1; Lys1; 1 μM; GF
Protocol: as §1

[19] = target: kinases in BCWM.1 cells (Homo sapiens, UniProt O95382); conditions: MAP3K6; Lys2; 1 μM; GF
Protocol: as §1

[20] = target: kinases in BCWM.1 cells (Homo sapiens, UniProt Q9UK32); conditions: RSK4 domain1; Lys2; 1 μM, 90 min; GF
Protocol: as §1

[21] = target: kinases in BCWM.1 cells (Homo sapiens, UniProt P78356); conditions: PIP4K2B; ATP; 1 μM, 90 min; GF
Protocol: as §1

[22] = target: kinases in BCWM.1 cells (Homo sapiens, UniProt Q96L34); conditions: MARK4; Lys2; 1 μM; GF
Protocol: as §1

[23] = target: kinases in BCWM.1 cells (Homo sapiens, UniProt Q9NWZ3); conditions: IRAK4; Lys2; 1 μM; GF
Protocol: as §1

[24] = target: kinases in BCWM.1 cells (Homo sapiens, UniProt P24941); conditions: CDK2; Lys2; 1 μM; GF
Protocol: as §1

[25] = target: kinases in BCWM.1 cells (Homo sapiens, UniProt P06241); conditions: FYN; Lys1; 1 μM; GF
Protocol: as §1

[26] = target: kinases in BCWM.1 cells (Homo sapiens, UniProt P78368); conditions: CK1g2; Lys2; 1 μM; GF
Protocol: as §1

[27] = target: kinases in BCWM.1 cells (Homo sapiens, UniProt P51956); conditions: NEK3; Activation Loop; 1 μM, 90 min; GF
Protocol: as §1

[28] = target: kinases in BCWM.1 cells (Homo sapiens, UniProt Q8TCG2); conditions: PI4K2B; ATP; 1 μM, 90 min; GF
Protocol: as §1

[29] = target: kinases in BCWM.1 cells (Homo sapiens, UniProt P09769); conditions: FGR; Activation Loop; 1 μM; GF
Sequence of kinases in BCWM.1 cells (Homo sapiens, UniProt P09769) (P09769 2-529 limits assumed): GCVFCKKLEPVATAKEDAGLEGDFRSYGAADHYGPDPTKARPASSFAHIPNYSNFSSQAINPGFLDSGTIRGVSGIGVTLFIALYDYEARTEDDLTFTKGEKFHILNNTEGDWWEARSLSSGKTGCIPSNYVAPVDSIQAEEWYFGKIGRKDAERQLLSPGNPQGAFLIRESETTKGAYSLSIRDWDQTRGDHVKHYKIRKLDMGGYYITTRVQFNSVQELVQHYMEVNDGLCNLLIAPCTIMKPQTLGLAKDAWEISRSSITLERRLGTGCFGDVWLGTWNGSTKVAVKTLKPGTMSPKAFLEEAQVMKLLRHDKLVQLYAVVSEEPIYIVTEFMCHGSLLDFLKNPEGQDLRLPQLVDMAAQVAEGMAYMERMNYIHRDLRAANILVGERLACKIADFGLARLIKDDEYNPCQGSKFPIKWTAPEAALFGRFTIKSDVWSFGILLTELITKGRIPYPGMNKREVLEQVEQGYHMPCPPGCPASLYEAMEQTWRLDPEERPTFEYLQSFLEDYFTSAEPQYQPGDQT
Protocol: as §1

## C=CC(=O)N1CC[C@H](Nc2nccc(Nc3ncc(C(=O)Nc4c(C)cccc4C)s3)n2)C1 [Example I-3]
[1]
  % change of MS signal compared to control sample: 30.5%

## C=CC(=O)N1CC[C@@H](Nc2nccc(Nc3ncc(C(=O)Nc4c(C)cccc4C)s3)n2)C1 [Example I-4]
[2]
  % change of MS signal compared to control sample: 17.4%
[3]
  % change of MS signal compared to control sample: −27.4%

## CCC(=O)N1CC[C@H](Nc2nccc(Nc3ncc(C(=O)Nc4c(C)cccc4C)s3)n2)C1 [Example I-9]
[4]
  % change of MS signal compared to control sample: 16.8% and 16.3%
[5]
  % change of MS signal compared to control sample: −16.2% and −8.3%
[6]
  % change of MS signal compared to control sample: 85.2% and 94%
[7]
  % change of MS signal compared to control sample: −2.8% and −0.3%
[8]
  % change of MS signal compared to control sample: 2.7% and 3.5%
[9]
  % change of MS signal compared to control sample: 11.1% and 9.8%
[10]
  % change of MS signal compared to control sample: 32.7% and 23.1%
[11]
  % change of MS signal compared to control sample: −2.6% and −3.2%
[12]
  % change of MS signal compared to control sample: −10.3% and −13.1%
[13]
  % change of MS signal compared to control sample: −12.6% and −6.1%
[14]
  % change of MS signal compared to control sample: 7.2% and −1.4%
[15]
  % change of MS signal compared to control sample: 93.7% and 95.4%
[16]
  % change of MS signal compared to control sample: −4.7% and −3.9%
[17]
  % change of MS signal compared to control sample: −22% and −18.5%
[18]
  % change of MS signal compared to control sample: −7.5% and −8.7%
[19]
  % change of MS signal compared to control sample: −13.4% and −5%
[20]
  % change of MS signal compared to control sample: 15.8%
[21]
  % change of MS signal compared to control sample: −19%
[22]
  % change of MS signal compared to control sample: −12.2% and −10.2%
[23]
  % change of MS signal compared to control sample: −3.2% and 6.2%
[24]
  % change of MS signal compared to control sample: −8.7% and −4.3%
[25]
  % change of MS signal compared to control sample: >91%
[26]
  % change of MS signal compared to control sample: −8.9% and −10.9%
[27]
  % change of MS signal compared to control sample: −3.2%
[28]
  % change of MS signal compared to control sample: 6.5%
[29]
  % change of MS signal compared to control sample: 84.7% and 72.1%

## C=CC(=O)N1CCC(Cn2ccc(Nc3ncc(C(=O)Nc4c(C)cccc4Cl)s3)n2)C1 (stereo not shown) [II-1]
[2]
  % change of MS signal compared to control sample: 0.5% and −0.2%
[3]
  % change of MS signal compared to control sample: −5.5% and −15.4%
